Assays:
[1] = target: T1, P-gp (MDR1) (Homo sapiens, UniProt P08183); experiment: MDCK-MDR1 monolayer permeability and efflux; format: in vitro ADME; design: dose or concentration left out as unconfirmed; conditions: dog; for Papp at 2 h: MDCK-MDR1; for efflux ratio at 2 h: MDCK-MDR1 efflux ratio, read-out: P-gp ER
T1 construct: host or cells: MDR1-MDCK cell monolayers
Procedure: page 9: Brain plasma concentration ratio (Kp) was calculated by dividing brain concentration by plasma concentration for each animal. Unbound brain to unbound plasma concentration ratio (Kp,uu) is calculated using the following formula: Kp,uu = (Brain ng/g x brain fu)/(plasma ng/ml x plasma fu). Pharmacokinetic profiles in rats following oral single escalating doses Single escalating oral dosing in Sprague-Dawley rats was performed at Frontage Laboratories according to their non-GLP Standard Operating Procedure and IACUC protocols. In short, compounds were formulated in 10% Tween 80 in water and dosed at 10 mg/kg. At different times, arterial blood was collected from a femoral artery catheter, and compound concentration was determined in plasma by LC-MS/MS following their non-GLP protocol. PK parameters were determined using Phoenix WinNonlin software (version 6.3). In-vitro determination of blood-brain barrier penetration potential Blood-brain barrier penetration was determined using MDR1-MDCK cell monolayers by Absorption Systems, following their protocol. In short, compounds were incubated […] final concentration on one side of the cell monolayer for 2 hours. Compounds concentration on either side of the monolayer was determined by LC-MS/MS and apparent permeability and efflux ratio were determined as described in Wang, Q. et al.1 Behavioral Manifestations of Seizure Activity To evaluate induction of behavioral manifestation of seizure activity, C57Bl/6 mice received administration of vehicle or 100 mg/kg M1 PAM 5. Compound was formulated in 30% Captisol (pH 7.0) at a concentration of 10 mg/mL and injected i.p. at 10 ml/kg (n = 4). Animals were monitored continuously and scored for behavioral manifestations of seizure activity at 5, 15, 30 min, and 1 h. Behavioral manifestations of seizures were scored using a modified Racine scoring system. Briefly, a score of 0 represents no behavior alterations; score 1, immobility, mouth and facial movements, or facial clonus; score 2, head nodding, tail extension; score 3, forelimb clonus, repetitive movements; score 4, rearing and tonic clonic seizure; and score 5, continuous rearing and falling, severe generalized tonic clonic seizure. Novel Object Recognition Task S9

[2] = Brain to plasma ratio in rat; format: in vivo; conditions: male, Sprague-Dawley, brain and plasma, intravenous, 0.2 mg/kg, rat (SD); for Kp at 15 min: brain/plasma; for Kp uu at 15 min: unbound brain/unbound plasma
Procedure: where Qh (hepatic blood flow, mL/min/kg) is 21 (human) or 70 (rat).
LC/MS/MS Bioanalysis of Samples from Plasma Protein Binding and Intrinsic Clearance […]
Samples were analyzed on a Thermo Electron TSQ Quantum Ultra triple quad mass spectrometer (San Jose, CA) via electrospray ionization (ESI) with two Themo Electron Accella pumps (San Jose, CA), and a Leap Technologies CTC PAL autosampler (Carrboro, NC). Analytes were separated by gradient elution on a dual column system with two Thermo Hypersil Gold (2.1 x 30 mm, 1.9 µm) columns (San Jose, CA) thermostated at 40 °C. HPLC mobile phase A was 0.1% formic acid in water and mobile phase B was 0.1% formic acid in acetonitrile. The gradient started […]
for 0.2 min; returned to 10% B in 0.1 min. The total run time was 1.3 min and the HPLC flow rate was 0.8 mL/min. While pump 1 ran the gradient method, pump 2 equilibrated the alternate column isocratically at 10% B. Compound optimization, data collection, and processing was performed using Thermo Electron's QuickQuan software (v2.3) and Xcalibur (v2.0.7 SP1).
In vivo DMPK experimental:
Determination of brain to plasma ratio:
All animal study procedures were approved by the Institutional Animal Care and Use Committee and were conducted in accordance with the National Institutes of Health regulations of animal care covered in Principles of Laboratory Animal Care (National Institutes of Health). All rats were fasted overnight prior to testing.
For determination of the brain over plasma ratio (Kp), compounds were formulated in 8% ethanol, 32% PEG400 and 60% DMSO (v/v/v) and administered as a single 0.2 mg/kg IV dose (1 mL/kg) to male, Sprague Dawley rats (n = 1) via injection into a surgically-implanted jugular vein catheter. At 15 min post dosing, blood sample was collected into chilled, K2EDTA anticoagulant-fortified tube and immediately placed on wet ice. The blood sample was then centrifuged (1700 rcf, 5 minutes, 4 °C) to obtain plasma sample. At the same post-administration time point, whole brain sample was obtained by rapid dissection, rinsed with PBS, and immediately frozen in individual tissue collection box (dry ice). All brain and plasma samples were stored at -80 °C until […]
Sample Analysis: Concentrations in plasma and brain homogenates were quantified by liquid chromatography tandem mass spectrometry (LC-MS/MS). Whole brains were homogenized in 3 mL of 70:30 IPA:water in a mini bead beater for 3 min, and centrifuged at 3,500 g for 5 min. 5 uL of the supernatant was diluted in 15 uL of blank plasma for quantification of the analytes. Plasma samples were centrifuged at 3,500 g for 5 min. A standard curve was generated by diluting the analytes DMSO stocks with blank plasma to obtain a final concentration of 10,000 ng/ml followed by a serial dilution down to 0.5 ng/ml. Quality controls were generated by a serial dilution of the 5,000 ng/ml standard curve solution in blank plasma to obtain 3 concentrations of 500, 50, and 5 ng/ml. 20 uL of brain diluted in plasma, plasma, blank plasma, standard curve and QC samples were loaded in a V-bottom 96-well plate. 120 uL of acetonitrile containing 0.05 uM carbamazepine (internal standard) was added to each well and the plate was centrifuged at 3,500 g for 5 min. 60 uL of the supernatant of each well (protein free) was transferred to a new 96-well plate containing 60 uL of water. The plates were sealed for analysis by LC-MS/MS.
Plasma and brain tissue samples originating from in vivo studies were analyzed by electrospray ionization using an AB Sciex Q-TRAP 5500 (Foster City, CA) that was coupled to a Shimadzu LC-20AD pump (Columbia, MD) and a Leap Technologies CTC PAL auto-sampler (Carrboro, NC). Analytes were separated by gradient elution using a C18 column (3 x 50 mm, 3 mm; Fortis Technologies Ltd, Cheshire, UK) that was thermostated at 40 °C. HPLC mobile phase A was 0.1% formic acid in water (pH unadjusted); mobile phase B was 0.1% formic acid in acetonitrile (pH […]

T1 sequence (P08183 whole entry): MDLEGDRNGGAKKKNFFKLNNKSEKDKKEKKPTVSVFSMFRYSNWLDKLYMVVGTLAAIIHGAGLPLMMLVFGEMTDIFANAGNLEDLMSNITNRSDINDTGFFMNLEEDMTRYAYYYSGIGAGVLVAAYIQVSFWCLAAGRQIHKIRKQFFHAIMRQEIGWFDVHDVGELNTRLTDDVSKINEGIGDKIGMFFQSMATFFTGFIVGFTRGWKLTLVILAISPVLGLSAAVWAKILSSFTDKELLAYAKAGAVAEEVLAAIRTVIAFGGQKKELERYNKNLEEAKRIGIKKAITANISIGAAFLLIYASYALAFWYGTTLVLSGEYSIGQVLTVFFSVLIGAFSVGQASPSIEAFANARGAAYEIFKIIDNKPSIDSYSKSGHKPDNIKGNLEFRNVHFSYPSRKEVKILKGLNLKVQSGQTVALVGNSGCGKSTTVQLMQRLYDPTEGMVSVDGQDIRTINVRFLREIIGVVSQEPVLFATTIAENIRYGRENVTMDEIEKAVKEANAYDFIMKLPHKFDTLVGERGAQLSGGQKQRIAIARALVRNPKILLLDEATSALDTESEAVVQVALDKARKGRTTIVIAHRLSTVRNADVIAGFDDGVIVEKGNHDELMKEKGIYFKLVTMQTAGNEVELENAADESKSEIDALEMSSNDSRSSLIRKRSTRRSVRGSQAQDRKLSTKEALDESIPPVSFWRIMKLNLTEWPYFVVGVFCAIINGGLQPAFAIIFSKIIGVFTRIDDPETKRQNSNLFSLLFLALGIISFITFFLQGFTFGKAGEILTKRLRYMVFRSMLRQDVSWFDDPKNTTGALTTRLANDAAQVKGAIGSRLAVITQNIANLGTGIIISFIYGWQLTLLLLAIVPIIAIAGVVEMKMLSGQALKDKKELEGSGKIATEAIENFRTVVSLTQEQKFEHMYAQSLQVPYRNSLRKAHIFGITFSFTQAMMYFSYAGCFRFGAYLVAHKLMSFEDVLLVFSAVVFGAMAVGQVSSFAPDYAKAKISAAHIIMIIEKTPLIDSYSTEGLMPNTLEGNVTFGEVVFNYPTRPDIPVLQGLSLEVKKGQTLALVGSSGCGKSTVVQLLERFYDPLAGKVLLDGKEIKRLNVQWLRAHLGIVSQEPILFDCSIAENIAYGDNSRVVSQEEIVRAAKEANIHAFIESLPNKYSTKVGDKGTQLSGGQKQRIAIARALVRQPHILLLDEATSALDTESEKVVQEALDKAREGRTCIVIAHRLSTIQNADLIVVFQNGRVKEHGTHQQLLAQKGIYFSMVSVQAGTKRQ

Row | SMILES | Papp at 2 h [1] [×10⁻⁶ cm/s] | efflux ratio at 2 h [1] | Kp at 15 min [2] | Kp uu at 15 min [2]
1 | Cn1cc2c(-c3cc(F)c(CN4Cc5ncccc5C4=O)c(F)c3)cccc2n1 [compound 1] | 31.1 | 1.8 | 0.77 | 1.3
2 | [2H]C1([2H])c2ncccc2C(=O)N1Cc1c(F)cc(-c2cccc3nn(C)cc23)cc1F [compound 3] | 41.2 | 1.55 | 0.63 | 0.57
3 | [2H]C1([2H])c2ncccc2C(=O)N1Cc1c(F)cc(-c2cccc3nn(C([2H])([2H])[2H])cc23)cc1F [compound 5] | 34.2 | 1.3 | 1.1 | 1.5

From article PMC12006963, “Application of Deuterium in an M1 Positive Allosteric Modulator Back-Up Program: The Discovery of VU6045422” (ACS Chemical Neuroscience, 2025)
